Experiments:
[1] = molecular target: GSK3α (Homo sapiens, UniProt P49840); assay: GSK 3α enzyme inhibition (FRET), Method 1; format: biochemical; conditions: Table 4a1
Description: (§1) The enzyme inhibitory activities of compounds disclosed herein are determined by FRET using synthetic peptides labelled with both donor and acceptor fluorophores (Z-LYTE, Invitrogen Ltd., Paisley, UK).
The following two assay variants are used for determination of GSK 3a inhibition.
The inhibitory activities of compounds of the invention against the GSK 3a enzyme isoform (Invitrogen), are evaluated by determining the level of activation/phosphorylation of the target peptide. The GSK3-α protein (500 ng/mL, 2.5 μL) is mixed with the test compound (2.5 μL at either 4 μg/mL, 0.4 μg/mL, 0.04 μg/mL, or 0.004 μg/mL) for 2 hr at RT. The FRET peptide (8 μM, 2.5 μL), which is a phosphorylation target for GSK3α, and ATP (40 μM, 2.5 μL) are then added to the enzyme/compound mixture and the resulting mixture incubated for 1 hr. Development reagent (protease, 5 μL) is added for 1 hr prior to detection in a fluorescence microplate reader (Varioskan® Flash, ThermoFisher Scientific).
(§2) In all cases, the site-specific protease cleaves non-phosphorylated peptide only and eliminates the FRET signal. Phosphorylation levels of each reaction are calculated using the ratio of coumarin emission (donor) over fluorescein emission (acceptor), for which high ratios indicate high phosphorylation and low ratios indicate low phosphorylation levels.

[2] = molecular target: cSrc (Homo sapiens, UniProt P12931); assay: c-Src enzyme inhibition (FRET); format: biochemical; conditions: Table 4a1
Chain of cSrc (P12931 whole entry): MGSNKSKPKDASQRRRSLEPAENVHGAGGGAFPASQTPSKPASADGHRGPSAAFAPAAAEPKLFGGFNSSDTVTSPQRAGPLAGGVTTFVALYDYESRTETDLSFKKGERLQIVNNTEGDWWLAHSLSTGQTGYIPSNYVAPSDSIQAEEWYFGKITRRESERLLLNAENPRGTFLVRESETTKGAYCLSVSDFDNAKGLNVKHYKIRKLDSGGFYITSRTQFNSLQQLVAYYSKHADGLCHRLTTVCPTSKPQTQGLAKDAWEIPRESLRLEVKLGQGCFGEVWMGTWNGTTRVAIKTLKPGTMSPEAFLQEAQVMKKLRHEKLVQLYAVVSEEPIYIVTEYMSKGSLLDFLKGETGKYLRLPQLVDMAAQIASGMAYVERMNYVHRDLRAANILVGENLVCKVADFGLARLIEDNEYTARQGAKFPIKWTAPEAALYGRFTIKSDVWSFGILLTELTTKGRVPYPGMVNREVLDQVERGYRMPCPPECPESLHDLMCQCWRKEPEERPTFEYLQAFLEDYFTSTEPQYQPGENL
Description: as §1
(§3) The relevant enzyme (3000 ng/mL or 2000 ng/mL respectively, 2.5 μL) is incubated with the test compound (either 4 μg/mL, 0.4 μg/mL, 0.04 μg/mL, or 0.004 μg/mL, 2.5 μL each) for 2 hr at RT. The FRET peptides (8 μM, 2.5 μL), and appropriate ATP solutions (2.5 μL, 800 μM for c-Src, and 60 μM ATP for Syk) are then added to the enzymes/compound mixtures and incubated for 1 hr. Development reagent (protease, 5 μL) is added for 1 hr prior to detection in a fluorescence microplate reader (Varioskan® Flash, ThermoFisher Scientific).
as §2

[3] = molecular target: Syk (Homo sapiens, UniProt P43405); assay: Syk enzyme inhibition (FRET); format: biochemical; conditions: Table 4a1
Description: as §1, §3, §2

[4] = system: TNFα release, d-U937 cells; assay: LPS-induced TNFα release in d-U937 cells; format: cell-based; conditions: Homo sapiens, dU937; relative to 10 μg/mL BIRB796; Table 4c1; read-out: LPS Induced Release of Cytokine in d-U937 Cells, TNFα REC50
Description: (§4) (a) LPS-Induced TNFα/IL-8 Release in d-U937Cells
U937 cells, a human monocytic cell line, are differentiated into macrophage-type cells by incubation with PMA (100 ng/mL) for 48 to 72 hr. Cells are pre-incubated with final concentrations of test compound for 2 hr and are then stimulated with LPS (0.1 μg/mL; from E. Coli: 0111:B4, Sigma) for 4 hr. The supernatant is collected for determination of TNFα and IL-8 concentrations by sandwich ELISA (Duo-set, R&D systems). […] The relative 50% effective concentration (REC50) is determined from the resultant concentration-response curve. The inhibition of IL-8 production is calculated at each concentration of test compound by comparison with vehicle control.

[5] = system: d-U937 cells; assay: Cell viability: MTT assay; format: cell-based, human; conditions: 1 μg/mL
Description: (l) The Effect of Test Compounds on Cell Viability: MTT Assay
Differentiated U937 cells are pre-incubated with each test compound (final concentration 1 μg/mL or 10 μg/mL in 200 μL media indicated below) under two protocols: the first for 4 hr in 5% FCS RPMI1640 media and the second in 10% FCS RPMI1640 media for 24 h. The supernatant is replaced with new media (200 μL) and MTT stock solution (10 μL, 5 mg/mL) is added to each well. After incubation for 1 hr the media are removed, DMSO (200 μL) is added to each well and the plates are shaken lightly for 1 hr prior to reading the absorbance at 550 nm. The percentage loss of cell viability is calculated for each well relative to vehicle (0.5% DMSO) treatment. Consequently an apparent increase in cell viability for drug treatment relative to vehicle is tabulated as a negative percentage.

[6] = system: IL-8 release, d-U937 cells; assay: LPS-induced IL-8 release in d-U937 cells; format: cell-based; conditions: Homo sapiens, dU937; Table 4c1; read-out: LPS Induced Release of Cytokine in d-U937 Cells, IL-8 IC50
Description: as §4
U937 cells, a human monocytic cell line, are differentiated into macrophage-type cells by incubation with PMA (100 ng/mL) for 48 to 72 hr. Cells are pre-incubated with final concentrations of test compound for 2 hr and are then stimulated with LPS (0.1 μg/mL; from E. Coli: 0111:B4, Sigma) for 4 hr. […] The relative 50% effective concentration (REC50) is determined from the resultant concentration-response curve.

[7] = system: ICAM-1 expression, BEAS2B cells; assay: Poly I:C-induced ICAM-1 expression in BEAS2B cells; format: cell-based; conditions: Homo sapiens, BEAS-2B; read-out: Poly IC induced ICAM1 in BEAS2B, IC50
Description: (f) Poly I:C-Induced ICAM-1 Expression in BEAS2B Cells
Poly I:C is used in these studies as a simple, RNA virus mimic. Poly I:C-Oligofectamine mixture (1 μg/mL Poly I:C, ±2% Oligofectamine, 25 μL; Invivogen Ltd., San Diego, Calif., and Invitrogen, Carlsbad, Calif., respectively) is transfected into BEAS2B cells (human bronchial epithelial cells, ATCC). Cells are pre-incubated with final concentrations of test compounds for 2 hr and the level of ICAM1 expression on the cell surface is determined by cell-based ELISA. At a time point 18 hr after poly I:C transfection, cells are fixed with 4% formaldehyde in PBS (100 μL) and then endogenous peroxidase is quenched by the addition of washing buffer (100 μL, 0.05% Tween in PBS: PBS-Tween) containing 0.1% sodium azide and 1% hydrogen peroxide. Cells are washed with wash-buffer (3×200 μL). and after blocking the wells with 5% milk in PBS-Tween (100 μL) for 1 hr, the cells are incubated with anti-human ICAM-1 antibody (50 μL; Cell Signalling Technology, Danvers, Mass.) in 1% BSA PBS overnight at 4° C.
The cells are washed with PBS-Tween (3×200 μL) and incubated with the secondary antibody (100 μL; HRP-conjugated anti-rabbit IgG, Dako Ltd., Glostrup, Denmark). […] The ICAM-1 signal is detected by reading the absorbance at 450 nm against a reference wavelength of 655 nm using a spectrophotometer. The cells are then washed with PBS-Tween (3×200 μL) and total cell numbers in each well are determined by reading absorbance at 595 nm after Crystal Violet staining (50 μL of a 2% solution in PBS) and elution by 1% SDS solution (100 μL) in distilled water. The measured OD 450-655 readings are corrected for cell number by dividing with the OD595 reading in each well. The inhibition of ICAM-1 expression is calculated at each concentration of test compound by comparison with vehicle control.

Chain of GSK3α (P49840 whole entry): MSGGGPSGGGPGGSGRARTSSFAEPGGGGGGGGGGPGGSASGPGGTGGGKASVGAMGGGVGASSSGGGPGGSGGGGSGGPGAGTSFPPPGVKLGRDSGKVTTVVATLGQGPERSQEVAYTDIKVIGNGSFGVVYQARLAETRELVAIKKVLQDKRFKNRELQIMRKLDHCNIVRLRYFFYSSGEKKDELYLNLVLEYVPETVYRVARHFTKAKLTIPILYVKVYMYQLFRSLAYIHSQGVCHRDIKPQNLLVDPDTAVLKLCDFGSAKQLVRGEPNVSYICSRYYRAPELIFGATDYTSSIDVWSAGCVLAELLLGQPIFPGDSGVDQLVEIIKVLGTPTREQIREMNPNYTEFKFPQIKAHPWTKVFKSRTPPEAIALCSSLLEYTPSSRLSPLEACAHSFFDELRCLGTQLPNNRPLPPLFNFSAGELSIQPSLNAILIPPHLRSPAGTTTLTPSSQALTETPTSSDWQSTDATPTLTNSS

`COc1ccc(-n2nc(C(C)(C)C)cc2NC(=O)Nc2ccc(Oc3cc(Nc4cc(OC)cc(C(=O)NCCN5CCOCC5)c4)ncn3)c(C)c2C)cc1` [Example 91, 3-((6-(4-(3-(3-(tert-Butyl)-1-(4-methoxyphenyl)-1H-pyrazol-5-yl)ureido)-2,3-dimethylphenoxy)pyrimidin-4-yl)amino)-5-methoxy-N-(2-morpholinoethyl)benzamide] was tested, and the IC50 [1] was 3520 nM, the IC50 [2] was < 1.3 nM and the IC50 [3] was 131 nM.
For `COc1ccc(-n2nc(C(C)C)cc2NC(=O)Nc2ccc(Oc3ccnc(Nc4cccc(C(=O)NCCN5CCOCC5)c4)n3)c3ccccc23)cc1` [Example 20, 3-((4-((4-(3-(3-isopropyl-1-(4-methoxyphenyl)-1H-pyrazol-5-yl)ureido)naphthalen-1-yl)oxy)pyrimidin-2-yl)amino)-N-(2-morpholinoethyl)benzamide], the EC50 [4] was 1.4 nM, the “Cell viability at time point in d-U937 cells, 4 h” value [5] was “−ve (−ve and +ve indicate that the value is below and above respectively, the no significant effect threshold, defined as 30% inhibition at 1 μg/mL at the time point indicated)” and the “Cell viability at time point in d-U937 cells, 24 h” value (“Cell viability at time point … 24 h” for short) [5] was “−ve (−ve and +ve indicate that the value is below and above respectively, the no significant effect threshold, defined as 30% inhibition at 1 μg/mL at the time point indicated)”. It also gave an IC50 [1] of 317 nM and an IC50 [3] of 15 nM.
`C=C(C)c1cc(NC(=O)Nc2ccc(Oc3ccnc(Nc4cc(OC)cc(C(=O)NCCN5CCOCC5)c4)n3)c3ccccc23)n(-c2ccc(OC)cc2)n1` [Example 86, 3-Methoxy-5-((4-((4-(3-(1-(4-methoxyphenyl)-3-(prop-1-en-2-yl)-1H-pyrazol-5-yl)ureido)naphthalen-1-yl)oxy)pyrimidin-2-yl)amino)-N-(2-morpholinoethyl)-benzamide] was tested, and the “Cell viability at time point in d-U937 cells, 4 h” value [5] was “−ve (−ve and +ve indicate that the value is below and above respectively, the no significant effect threshold, defined as 30% inhibition at 1 μg/mL at the time point indicated)”, the “Cell viability at time point … 24 h” value [5] was “−ve (−ve and +ve indicate that the value is below and above respectively, the no significant effect threshold, defined as 30% inhibition at 1 μg/mL at the time point indicated)” and the IC50 [1] was > 13000 nM. For the same compound, the IC50 [2] was 8 nM, the IC50 [3] was 20 nM and the IC50 [6] was 1.5 nM.
For `COc1ccc(-n2nc(C(C)(C)C)cc2NC(=O)Nc2ccc(Oc3ccnc(Nc4cc(OC)cc(C(=O)NCCN5CCOCC5)c4)n3)c3ccccc23)cc1` [Example 54, 3-((4-((4-(3-(3-(tert-butyl)-1-(4-methoxyphenyl)-1H-pyrazol-5-yl)ureido)naphthalen-1-yl)oxy)pyrimidin-2-yl)amino)-5-methoxy-N-(2-morpholinoethyl)benzamide], the EC50 [4] was 0.2 nM, the “Cell viability at time point in d-U937 cells, 4 h” value [5] was “−ve (−ve and +ve indicate that the value is below and above respectively, the no significant effect threshold, defined as 30% inhibition at 1 μg/mL at the time point indicated)” and the “Cell viability at time point … 24 h” value [5] was “−ve (−ve and +ve indicate that the value is below and above respectively, the no significant effect threshold, defined as 30% inhibition at 1 μg/mL at the time point indicated)”. For the same compound, the IC50 [1] was 217 nM, the IC50 [3] was 5 nM and the IC50 [6] was 0.8 nM.
`COc1cc(Nc2nccc(Oc3ccc(NC(=O)Nc4cc(C(C)C)nn4-c4ccc(C)cc4)c4ccccc34)n2)cc(C(=O)NCCO)c1` [Example 63, N-(2-hydroxyethyl)-3-((4-((4-(3-(3-isopropyl-1-(p-tolyl)-1H-pyrazol-5-yl)ureido)naphthalen-1-yl)oxy)pyrimidin-2-yl)amino)-5-methoxybenzamide] was tested, and the IC50 [7] was 10.1 nM, the EC50 [4] was 0.7 nM and the “Cell viability at time point in d-U937 cells, 4 h” value [5] was “−ve (−ve and +ve indicate that the value is below and above respectively, the no significant effect threshold, defined as 30% inhibition at 1 μg/mL at the time point indicated)”. The “Cell viability at time point … 24 h” value [5] was “−ve (−ve and +ve indicate that the value is below and above respectively, the no significant effect threshold, defined as 30% inhibition at 1 μg/mL at the time point indicated)”, the IC50 [2] was 37 nM and the IC50 [3] was 865 nM. It also gave an IC50 [6] of 1.4 nM.
For `COc1cc(Nc2nccc(Oc3ccc(NC(=O)Nc4cc(C(C)(C)C)nn4-c4ccc(OC)nc4)c4ccccc34)n2)cc(C(=O)NCCN2CCOCC2)c1` [Example 57, 3-((4-((4-(3-(3-(tert-butyl)-1-(6-methoxypyridin-3-yl)-1H-pyrazol-5-yl)ureido)naphthalen-1-yl)oxy)pyrimidin-2-yl)amino)-5-methoxy-N-(2-morpholinoethyl)benzamide], the IC50 [7] was 1.9 nM, the EC50 [4] was 0.6 nM and the “Cell viability at time point in d-U937 cells, 4 h” value [5] was “−ve (−ve and +ve indicate that the value is below and above respectively, the no significant effect threshold, defined as 30% inhibition at 1 μg/mL at the time point indicated)”. For the same compound, the “Cell viability at time point … 24 h” value [5] was “−ve (−ve and +ve indicate that the value is below and above respectively, the no significant effect threshold, defined as 30% inhibition at 1 μg/mL at the time point indicated)”, the IC50 [1] was 283 nM and the IC50 [2] was < 1 nM. For the same compound, the IC50 [6] was 1.5 nM.

From patent US20140057915A1, “KINASE INHIBITORS” (TOPIVERT PHARMA LIMITED, priority 2012, published 2014)
